Our source for the Kd values is ChEMBL document CHEMBL3862038, “When Does Chemical Elaboration Induce a Ligand To Change Its Binding Mode?” (J Med Chem, 2017).

The target in the assay is Heat shock protein HSP90 (Homo sapiens, UniProt P07900+P08238). Description: Inhibition of HSP90 (unknown origin).

The term Kd denotes the concentration at which binding is half-saturated. Low values mean a tighter complex, high ones a looser complex. For `COc1cccc(C(=O)NC2CCC3CCC(C2)N3c2ccc(C(=O)NCc3ccccc3)cc2)c1C` (stereo unspecified), the Kd worked out at 800 µM.
